Experimental data published in patent publication US8980846B2, “Composition containing styraxlignolide A or the aglycone thereof as an active ingredient for preventing or treating asthma” (Korea Research Institute of Bioscience and Biotechnology, priority 2010, dated 2015).

How the values were obtained:
Type in all cases: in vivo, Balb/c female mice
[1] = Body weight in asthma-induced mice; conditions: homoegonol study
Description: (§1) To prepare bronchial asthma-induced experimental animals, six-week-old Balb/c female mice of mean weight about 20 g were used. After one week of adaptation, individuals which had no observed abnormality on a basic physical examination were targeted. 200 μL of phosphate buffered saline (PBS)(pH 7.4) in which 2 mg of aluminum hydroxide (A8222, Sigma, St. Louis, Mo.) and 20 μg of ovalbumin (A5503, Sigma, St. Louis, Mo.) were suspended was injected into the peritoneal cavity at two-week intervals to result in sensitization. On days 28 to 30 after the first intraperitoneal administration of ovalbumin, inhalation challenge was performed for 30 min with 1% ovalbumin using an ultrasonic atomizer. 24 hours after the last antigen administration, airway hyperresponsiveness was measured. After 24 hours, a lethal dose of pentobarbital (Entobar®, Hanlim Pharm Co., Ltd.) was administered, body weight measurement and bronchotomy were performed, and bronchoalveolar lavage was performed with a total 1.2 mL of physiological saline, and then, samples were collected. […] Eight white mice were used for each group. Experimental groups for homoegonol were a group (hE7.5) in which animals were orally administered with 7.5 mg/kg homoegonol 1 hour prior to ovalbumin inhalation, a group (hE15) in which animals were orally administered with 15 mg/kg homoegonol 1 hour prior to ovalbumin inhalation, and a group (hE30) in which animals were orally administered with 30 mg/kg homoegonol 1 hour prior to ovalbumin inhalation, and five white mice were used for each group.
(§2) To determine an effect of styraxlignolide A on reduction in body weight in asthma-induced mice, body weight of each mouse prepared in Example 2 was measured. For statistical analyses for all measurements, means and standard errors (mean±S.E.) according to a number of variables were calculated, and comparison between each group was analyzed by performing a Mann-whitney U test using SPSS 10.0. Statically significance was accepted at p<0.05.
as §2, with “homoegonol” for “styraxlignolide A”

[2] = tested on: inflammatory cells in bronchoalveolar lavage fluid; assay: Inflammatory cell counts in bronchoalveolar lavage fluid (Diff-Quick staining); conditions: asthma-induced mice, homoegonol study, bronchoalveolar lavage fluid
Description: as §1
Bronchoalveolar lavage fluid was collected from individuals of each experimental group in <Example 2> and right after the collection, fluid was stained with trypan blue. The number of total cells except dead cells was calculated using a hemocytometer. Then, Diff-Quick staining (Sysmex, Swizerland) was performed after smear preparation with Cytospin II, and eosinophils and other inflammatory cells were differentially counted.
To examine the effect of homoegonol on asthma, variation in the numbers of asthma-related inflammatory cells was measured according to the method in <Experimental Example 3>.

[3] = tested on: inflammatory cells in the airway mucosa; assay: Inflammatory cell infiltration in airway mucosa, inflammatory index (H&E staining); conditions: asthma-induced mice, homoegonol study, scale 0-4
Description: as §1
Lungs removed from each individual were subjected to conventional formalin fixation and paraffin embedding, and permanent section slides of 4 μm thickness were prepared, and hematoxylin and eosin (H&E) staining was performed. After H&E staining, inflammatory index was measured from random five regions per section slide of each individual to calculate the mean value. Assessments were as follows: inflammatory index 0 is for the case that inflammatory cells are not observed around the bronchus; inflammatory index 1 is for the case that inflammatory cells are intermittently observed; inflammatory index 2 is for the case that thin inflammatory cell layers of one to two or three layers are observed around most of the bronchus; inflammatory index 3 is for the case that inflammatory cell layers of two or three to five or less layers are observed around most of the bronchus; and inflammatory index 4 is for the case that thick inflammatory cell layers of five or more layers are observed around most of the bronchus.
To examine the effect of homoegonol on asthma, lungs of which bronchoalveolar lavage was not performed were removed, and histopathological assessment was performed according to the method in <Experimental Example 7-1>. Since infiltration of inflammatory cells which are comprised of eosinophils, neutrophils, and macrophages are observed in an antigen-aroused bronchus, the present inventors tried to detect inflammatory cell infiltration.

COc1ccc(-c2cc3cc(CCCO)cc(OC)c3o2)cc1OC [homoegonol]
body weight ([1]; 7.5 mg/kg PO 1 hour prior to ovalbumin inhalation): 22.10 ± 0.13 g | body weight ([1]; 15 mg/kg PO 1 hour prior to ovalbumin inhalation): 21.23 ± 0.43 g | body weight ([1]; 30 mg/kg PO 1 hour prior to ovalbumin inhalation): 21.98 ± 0.47 g | Number of cells, Other inflammatory cells ([2]; 7.5 mg/kg PO): 33.40 ± 2.3467 ×10^3 cells/mouse | Number of cells, Eosinophils ([2]; 7.5 mg/kg PO, 7.5 mg/kg): 12.80±2.50 ×10^3 cells/mouse | Number of cells, Total inflammatory cells ([2]; 7.5 mg/kg PO, 7.5 mg/kg): 42.80±7.2060 ×10^3 cells/mouse | Number of cells, Other inflammatory cells ([2]; 15 mg/kg PO): 30.00 ± 2.8267 ×10^3 cells/mouse | Number of cells, Eosinophils ([2]; 15 mg/kg PO, 15 mg/kg): 6.32±0.86 ×10^3 cells/mouse | Number of cells, Total inflammatory cells ([2]; 15 mg/kg PO, 15 mg/kg): 39.72±4.4400 ×10^3 cells/mouse | Number of cells, Other inflammatory cells ([2]; 30 mg/kg PO): 28.4 ± 3.1739 ×10^3 cells/mouse | Number of cells, Eosinophils ([2]; 30 mg/kg PO, 30 mg/kg): 5.48±2.02 ×10^3 cells/mouse | Number of cells, Total inflammatory cells ([2]; 30 mg/kg PO, 30 mg/kg): 33.88±8.1589 ×10^3 cells/mouse | Inflammatory index, peribronchiolar ([3]; 7.5 mg/kg PO, 7.5 mg/kg): 1.67±0.1491 | Inflammatory index, perivascular ([3]; 7.5 mg/kg PO, 7.5 mg/kg): 1.89±0.1791 | Inflammatory index, peribronchiolar ([3]; 15 mg/kg PO, 15 mg/kg): 1.40±0.1549 | Inflammatory index, perivascular ([3]; 15 mg/kg PO, 15 mg/kg): 1.70±0.1449 | Inflammatory index, peribronchiolar ([3]; 30 mg/kg PO, 30 mg/kg): 1.00±0.2449 | Inflammatory index, perivascular ([3]; 30 mg/kg PO, 30 mg/kg): 1.30±0.2025
